Structures are written as SMILES.

Experiment [1] concerns PKC (rat brain mixture). The experiment is described as follows: PKC inhibition assay (protocol of Kikkawa, [γ-32P]ATP, histone). Conditions: rat brain mixture of PKC isoforms. It is filed as biochemical. The procedure: Our initial analogs were tested for inhibition of PKC[37],[38] (rat brain mixture) due to its clinical significance and our on-going and complementary work on PKC activators.[7b],[16],[26]
Simplified analog 19 was tested in the PKC inhibition assay using the rat brain mixture of PKC isoforms. […]. Computational docking[42] of the energy-minimized conformer of 19 in the computer-simulated ATP-binding pocket of PKCα (Fig. 3) illustrates the conserved hydrogen bonds between the maleimide and hinge region residues and the shape complementarity of the ligand with the pocket.
A PKC inhibition assay was performed following the protocol developed by Kikkawa and coworkers.5 The assay can be scaled as desired. Histone solution (0.33 mg/mL in 20 mM Tris buffer) was prepared from a stock solution (33 mg/mL, stored frozen). Phosphatidylserine (PS) vesicles were prepared by the addition of PS (10 mg/mL in chloroform, 240 µL) and dioleoylglycerol (10 mg/mL in ethanol, 40 µL) to a glass vial followed by removal of the chloroform under a stream of nitrogen. To the neat PS was added chilled 20 mM Tris assay buffer (2 mL) and the resulting mixture was sonicated (Branson Sonifier 250, power = 3, 30% duty cycle) four times for 30 sec with a 30 sec interval between sonications. The resulting milky suspension was stored on ice. "Stop" solution refers to a solution of 200 mM EDTA and 200 mM ATP in 20 mM Tris buffer.
Whatman filter papers were cut in 1 x 1 inches in dimension and labeled with tube number in pencil. An "Autogo" solution was prepared by mixing 27 µL of 3.75 mM ATP (in 20 mM Tris), 100 µL of 1.0 M MgCl2, 872 µL of 20 mM Tris buffer, and 1.3 µL of [γ-32P] ATP (total volume is 1 mL). "Autogo" solution should be kept in the hot hood all the time. "Cocktail 1" was prepared by mixing 70 µL of 10 mM Ca2+, 350 µL of 20 mM Tris, and 70 µL of histone solution (0.33 mg/mL in 20mM Tris). "Cocktail 2" was prepared by mixing 310 µL of 10 mM Ca2+, 930 µL of 20 mM Tris, 310 µL of the histone solution, and 310 µL of the PS solution (added only once the assay is ready to be run).
To each eppendorf tube, 10 µL of PKC solution and10 µL of the inhibitor solution were added. After addition of the inhibitor, each tube was vortexed. For negative controls, 70 µL of cocktail 1 was added to tubes 1 and 2. To the rest of the tubes were added 60 µL of cocktail 2. All the tubes were then transferred to the hot hood, and 20 µL of "Autogo" solution was added to each tube and vortexed immediately. A start countdown of 7 min was initiated when "Autogo" was added to the first tube. Addition to all the tubes should be completed within 7 min. When the countdown is over, "Stop" solution was added to each tube and vortexed. The interval between the addition of "Autogo" and "Stop" solution should be 7 min for each tube.
Contents of each tube was transferred to the piece of pre-labeled Whatman filter paper and the paper was washed by soaking them and swirling in a beaker filled with 300 mL of tap water. Once all the filter papers are soaked in the beaker, the supernatant was carefully drained (to the hot hood drain) and the papers were rinsed by soaking them in 300 mL of fresh tap water for 2 min. The water was decanted, and the papers were rinsed by soaking them in 300 mL of ethanol for 2 min. The ethanol should be recovered to a bottle in the hot hood (not to the drain). The papers were dried in the hot hood and each paper was transferred to a scintillation vial. The radiation was measured with the scintillation counter (Beckman LS 6000SC). The data set was analyzed using a least-square data-fitting algorithm in Prism 4 (Graphpad Software Inc.) to give an IC50 value (defined as the concentration of analogue required to inhibit 50% of PKC activity).

Experiment [2] concerns PKCβ. Conditions: cited from earlier work.

Regarding `NCCCn1c2ccc(Cl)cc2c2c3c(c4c(c21)CCC(O)CC4)C(=O)NC3=O` (centres unmarked) [Compound 10], in experiment [1], the 50% inhibitory concentration (IC50) – broadly, the concentration that inhibits the measured activity by half – was 2.6 µM.
With `NCCCn1c2ccc(Cl)cc2c2c3c(c4c(c21)CCC(N)CC4)C(=O)NC3=O` (centres unmarked) [Compound 11], in experiment [1], the 50% inhibitory concentration (IC50) worked out at 12.5 µM.
Take `CNC1CCc2c3c(c4c5cc(Cl)ccc5n(CCCN)c4c2CC1)C(=O)NC3=O` (centres unmarked) [Compound 12]: the 50% inhibitory concentration (IC50) in experiment [1] worked out at 14.1 µM.
For the compound `CN(C)C1CCc2c3c(c4c5cc(Cl)ccc5n(CCCN)c4c2CC1)C(=O)NC3=O` (centres unmarked) [Compound 13], in experiment [1], the IC50 turned out to be 2.9 µM.
Turning to `CN(C)C1CCc2c3c(c4c5ccccc5n(CCCN)c4c2CC1)C(=O)NC3=O` (centres unmarked) [Compound 14], in experiment [1], the half-maximal inhibitory concentration (IC50) is 1.6 µM.
With `CN(C)C1CCc2c(CC3CCNCC3)cc3c(c2CC1)C(=O)NC3=O` (centres unmarked) [Compound 19], in experiment [1], the half-maximal inhibitory concentration (IC50) worked out at 0.013 µM.
Regarding `Cn1cc(C2=C(c3cn(C4CCN(Cc5ccccn5)CC4)c4ccccc34)C(=O)NC2=O)c2ccccc21` [enzastaurin], the “selectivity for PKCβ over PKCα” value in experiment [2] is reported as 26 fold.
For the compound `CN(C)C[C@@H]1CCn2cc(c3ccccc32)C2=C(C(=O)NC2=O)c2cn(c3ccccc23)CCO1` [ruboxistaurin], in experiment [2], the “selectivity for PKCβ over PKCα” value is 60 fold.
